{
  "source": "patent US12521419B2",
  "about": "“Use of anti-aging glycopeptides to enhance pancreatic cell health, survival and improve transplant outcome” (Protokinetix Inc., priority 2014, dated 2026)",
  "key": {"[1]": {"system": "human islets transplanted under the kidney capsule", "test": "Intra-graft apoptosis 24 h post-transplant (cleaved caspase-3, TUNEL)", "format": "in vivo, immunodeficient mice", "details": "graft 24 h after transplant", "protocol": "Apoptosis is measured in all groups using a cleaved caspase-3 spectrophotometric assay and Terminal deoxynucleotidyl transferase dUTP nick end labeling (TUNEL) staining. All determinations are made on normalized groups of 100 IEQ and their corresponding culture media.\nFrozen media samples are used to determine cleaved caspase-3 increase using a spectrophotometric assay (EMD Millipore™. Billerica, MA, USA). Again, CMRL culture media alone with additives and no cells is used as a control, and results are expressed as fold-change increase compared to the control media.\nFor TUNEL staining (DeadEnd™ Apoptosis Detection System, Promega, Madison, WI), islets are fixed in formalin, processed and embedded in paraffin. Co-staining is performed to identify the graft (insulin), apoptotic cells and all nuclei present in the field. Apoptosis is quantified by percentage of positive TUNEL stained area using imageJ software.\nThree mice per group underwent nephrectomy and are euthanized 24 hr post-transplant to perform acute determination of proinflammatory cytokines, cleaved capase-3 and TUNEL in the graft area. In all cases the islet graft is excised from the kidney, weighed, flash frozen in liquid nitrogen and stored at −80° C. […]"}, "human islets [2]": {"system": "human islets", "test": "Capacitance measurement as indicator of exocytosis upon high glucose stimulation", "format": "cell-based", "protocol": "Complementary capacitance studies were performed with these same conditions as an indirect indicator of exocytosis upon high glucose stimulation."}, "mouse splenocytes": {"system": "mouse splenocytes", "test": "Allogeneic mixed lymphocyte reaction, T cell proliferation by CFSE staining", "format": "cell-based", "details": "vs IgG control, n=4", "excerpt": "The assay measures T cell proliferative response by levels of CFSE staining."}, "[3]": {"system": "human islets transplanted under the kidney capsule", "test": "Long-term graft function of minimal mass human islet transplant (blood glucose, IPGTT, graft insulin content)", "format": "in vivo, immunodeficient mice", "excerpt": "(§1) Eight to 12 week immunodeficient mice (B6.129S7-Rag1^tm1Mom) are obtained from the Jackson Laboratory (Bar Harbor, ME, USA) and housed under specific pathogen-free conditions with access to food and water ad libitum. Animals are cared for according to the guidelines of the Canadian Council on Animal Care, and ethical approval is obtained from the animal welfare committee at the University of Alberta.\n(§2) Animals are considered diabetic after two consecutive blood glucose measurements are documented≥18 mmol/L.\n(§3) Ten animals per group received approximately 1,000 IEQ human islets transplanted under the capsule of the left kidney as described previously (19).\nNon-fasting blood glucose is monitored in the remaining 7 mice per group three times a week using a portable glucometer (OneTouch Ultra 2, LifeScan, Canada) over 60 days. Normoglycemia is defined when two consecutive readings are below 11.3 mmol/L.\nIntraperitoneal Glucose-Tolerance Tests (IPGTT) are conducted 60 days post-transplant to evaluate the capacity of islets to respond to a glucose bolus (3 g/kg) after overnight fast. Blood glucose levels are monitored at baseline (Time 0, 15, 30, 60, 90 and 120 minutes post-injection). All results are compared to blood glucose profiles of naive control mice.\nNon-fasting blood glucose levels are recorded for 1 week following nephrectomy. Likewise, the native pancreas is excised at the terminal endpoint, fixed in 10% formalin and analyzed with immunohistochemistry to confirm absence of mouse insulin staining, thus, eliminating residual or regeneration of native pancreatic beta cell function.\nPreserved grafts are then processed as previously described and residual insulin content is determined using human insulin ELISA as a measure of surviving islets."}, "[4]": {"system": "human islets transplanted under the kidney capsule", "test": "Proinflammatory cytokines and chemokines in homogenized graft 24 h post-transplant", "format": "in vivo, immunodeficient mice", "details": "24 h after transplant, 1,000 IEQ, islets cultured with tacrolimus ± AAGP, n=3", "protocol": "After 24 hr exposure to tacrolimus, samples from culture media of all groups are frozen and relevant cytokines and chemokines (IFN-γ, IL-1β, IL-6, IL-10, IL-12, Keratinocyte-derived Chemokine (KC), and TNF-α) are measured using a Multi-Spot Human ProInflammatory 7-Plex Ultra-Sensitive kit (Meso Scale Discovery®, Gaithersburg, MD, USA), analyzed on the SECTOR™ Imager (Meso Scale Discovery®, Gaithersburg, MD, USA). Results are expressed as absolute values (pg/mL), and CMRL culture media alone is used as a control for comparison.\nas §1, §2, §3\nThree mice per group underwent nephrectomy and are euthanized 24 hr post-transplant to perform acute determination of proinflammatory cytokines, cleaved capase-3 and TUNEL in the graft area. In all cases the islet graft is excised from the kidney, weighed, flash frozen in liquid nitrogen and stored at −80° C. Tissue samples are subsequently lysed using 1 ml of lysis buffer (0.15 M NaCl, 1 mM Tris-HCL, 0.1% SDS, 0.1% Triton X-100, 20 mM Sodium deoxycholate, 5 mM EDTA) per 200 mg of tissue. Lysates are then homogenized (PowerGen, Fisher Scientific, ON, Canada) on ice for 30 sec×2 replications, and sonicated (VirSonic, VirTis, NY, USA) with 10 quick pulses while on ice. Cellular debris is pelleted by centrifugation at 14,000 rpm for 10 min at 4° C. and the resulting supernatant is collected and placed in a microcentrifuge tube containing 10 μl of a protease inhibitor cocktail (Sigma-Aldrich Canada Co., Oakville, ON, Canada) per 1 ml of lysate (1:100).\nGraft samples are assayed (using the corresponding mouse kit) for pro-inflammatory cytokines/chemokines, caspase-3 and TUNEL staining, as previously described. All determinations are adjusted per gram of tissue.\nFurther in vivo testing is performed to complement our in vitro findings. Using the same study groups (Tac−, Tac+ and Tac+AAGP™) minimal mass (1,000 IEQ) islet transplants are performed in chemically-induced diabetic immunodeficient mice (n=10 per group). […]"}, "human islets [5]": {"system": "human islets", "test": "Intra-islet calcium concentration", "format": "cell-based", "details": "Tac−, Tac+AAGP groups", "protocol": "Various electrophysiology studies were performed on human islets to elucidate a potential mechanism of action for the AAGP™ by characterizing the CNI-related injury and its avoidance."}, "human islets [6]": {"system": "human islets", "test": "Static GSIS assay (stimulation index)", "format": "cell-based", "details": "day 3, tacrolimus present", "excerpt": "Similar experimental conditions were recreated (human islets cultured with and without AAGP™ and exposed to tacrolimus) and aliquots of approximately 100 IEQ were collected on day 3 for each corresponding group to undergo s-GSIS assay and simultaneous intracellular insulin content. Islets were then extensively washed to remove tacrolimus and left in culture for 4 more days, when sampling and comparative testing was repeated on day 7."}, "human islets [7]": {"system": "human islets", "test": "Viability by fluorescent membrane integrity assay (syto green/ethidium bromide)", "format": "cell-based", "details": "24 h ± AAGP then 24 hr tacrolimus 10 ng/mL", "protocol": "After 24 hr of culture, islets are assessed for recovery, viability and function. Recovery rate is calculated as the percentage of surviving islets after 24 hr culture in comparison to the initial count for each condition. Viability is assessed using a fluorescent membrane integrity assay with counter-stains syto green/ethidium bromide (Cedarlane Laboratories, Burlington, ON, and Sigma-Aldrich, ON) (Islet isolation for clinical transplantation. In: Shahidul. M, (ed). The islets of Langerhans. New York: Springer, 2010; Ranuncoli A, et al. Cell transplantation 2000; 9(3):409-414; Ricordi C. et al. Acta diabetologica latina 1990; 27(3):185-195; and Barnett M J et al. Cell transplantation 2004; 13(5):481-488)."}},
  "data": [
    {"smiles": "C=CC[C@@H]1/C=C(\\C)C[C@H](C)C[C@H](OC)[C@H]2O[C@@](O)(C(=O)C(=O)N3CCCC[C@H]3C(=O)O[C@H](/C(C)=C/[C@@H]3CC[C@@H](O)[C@H](OC)C3)[C@H](C)[C@@H](O)CC1=O)[C@H](C)C[C@@H]2OC.O", "note": "[Tac+, tacrolimus]", "values": [
      {"measurement": "cleaved caspase-3, fold-change increase relative to kidneys of naïve mice", "setting": "[1]; n=3", "result": 3.14},
      {"measurement": "percentage of TUNEL positive cells", "setting": "[1]; control 14.9%", "result": 53.3, "unit": "%"},
      {"measurement": "cumulative capacitance area under the curve", "setting": "human islets [2]", "result": 39.08},
      {"measurement": "T cell proliferation (CD8+ and CD4+)", "setting": "mouse splenocytes", "result": "significantly decreased"},
      {"measurement": "IPGTT AUC", "setting": "[3]; 60 days post-transplant, glucose bolus 3 g/kg, Tac− 92.63, naïve 71.43", "result": 149.8},
      {"measurement": "insulin content of recovered graft", "setting": "[3]; after 60 days of transplant", "result": 30.86, "unit": "ng/mL"},
      {"measurement": "blood glucose over 60 days post-transplant", "setting": "[3]; marginal islet mass model, n=7 per group", "result": "all mice remained hyperglycemic"},
      {"measurement": "IL-1β level in graft", "setting": "[4]", "result": 17.81, "unit": "pg/mL/g-tissue"},
      {"measurement": "IL-6 level in graft", "setting": "[4]", "result": 147.8, "unit": "pg/mL/g-tissue"},
      {"measurement": "KC (keratinocyte chemokine) level in graft", "setting": "[4]", "result": 9.79, "unit": "pg/mL/g-tissue"},
      {"measurement": "TNF-α level in graft", "setting": "[4]", "result": 1.63, "unit": "pg/mL/g-tissue"},
      {"measurement": "calcium concentration in islets", "setting": "human islets [5]", "result": "neither tacrolimus nor AAGP™ affected the calcium concentration"},
      {"measurement": "stimulation index (s-GSIS)", "setting": "human islets [6]", "result": 1.4},
      {"measurement": "cell viability by membrane integrity stain", "setting": "human islets [7]", "result": "no difference in cell viability"}
    ]}
  ]
}
